Laboratory results reported in patent US20120121692A1, “COMPOUNDS AND COMPOSITIONS COMPRISING CDK INHIBITORS AND METHODS FOR TREATING CANCER” (SHANDONG UNIVERSITY, priority 2009, published 2012).
Each block holds one compound with its values, some of them ahead of it.

What was measured:
[1] = test system: HCT116 cells; assay: MTT cytotoxicity screening, human colon cancer cell line HCT116; assay type: cell-based; conditions: Homo sapiens, HCT-116, 48 hrs incubation, absorbance 490 nm, primary screening, read-out: IC50
Excerpt: Human colon cancer cell line HCT116 can be used for the preliminary cytotoxicity screening of the disclosed compounds as disclosed by Mosmann, T., “Rapid colorimetric assay for cellular growth and survival: application to proliferation and cytotoxicity assays.” J. Immunol. Methods, (1983) 65(1-2): p. 55-63 referred to herein further as the “MTT test” which is incorporated herein by reference in its entirety.
The disclosure of Mosmann recites the following. “MTT 93-(4,5-dimethylthirazol-2-yl)-2,5-diphenyl tetrazolium bromide; Sigman catalog no. M2128) was dissolved in PBS at 5 mg/ml and filtered to sterilize and remove a small amount of insoluble residue present in some batches of MTT. At the times indicated below, stock MTT solution (10 ml per 100 ml) was added to all wells of an assay, and plates were incubated at 37° C. for 4 h. Acid-siopropanol (100 ml of 0.04 N HCl in isopropanol) was added to all wells and mixed thoroughly to dissolve the dark blue crystals. After a few minutes at room temperature to ensure that all crystals were dissolved, the plates were read o a Dynatech MR580Microelisa reader, using a test wavelength of 570 nm, a reference wavelength of 630 nm, and a calibration setting of 1.99 (or 1.0 if the samples were strongly colored). Plates were normally read within 1 h of adding the isopropanol.
“Our final procedure was to add 0.01 ml MTT (5 mg/ml in phosphate-buffered saline) to 0.1 ml cells in growth medium. After 4 h at 37° C. for MTT cleavage, the formazan product was solublilized by the addition of 0.1 ml 0.04 N HCl in isopropanol. Optical density was measured on a Dynatech MR 580 plate reader, using a reference wavelength of 630 nm and a test wavelength of 570 nm.” 3-(4,5-Dimethylthiazol-2-yl)-2,5-diphenyltetrazolium bromide, a tetrazole, can pass through cellular membrane to enter into cells. This tetrazole may be reduced to the purple formazan in the mitochondria of living cells, which can diffuse out to form crystals. This crystal can be dissolved in the dimethyl sulfoxide to form a colored solution. The absorbance of this colored solution can be quantified by measuring at certain wavelength (490 nm) using a spectrophotometer. The quantity of the formazan crystal is proportional to the number of living cells.
As used herein, cells were cultured in McCoy's 5A medium supplemented with 10% heat-inactivated Fetal Bovine Serum (FBS) and 5% Penicillin/Streptomycin solution. McCoy's 5A, 1× (Iwakata & Grace modified) medium with L-Glutamine, DPBS, 1× w/o Ca and Mg, Penicillin/Streptomycin solution, Trypsin EDTA, 1× and PBS, 1× w/o Ca and Mg were purchased from Mediatech, Inc. (USA). FBS was purchased from Hyclone (USA).
The cytotoxicity of the compounds was estimated using the MTT assay. A 96-well plate was seeded with 100 μl medium containing HCT116 cells in suspension at a density of 2.5×10^4 cells/ml. After 24 hours of incubation, the cells were treated with the compounds, which were dissolved in DMSO (dimethyl sulfoxide) as stock solutions and diluted to final concentrations of 100 μM, 50 μM, 25 μM, 12.5 μM, 6.25 μM & 1 μM (for compounds tested in the micromolar concentrations) and 10 μM, 1 μM, 500 nM, 250 nM, 125 nM & 62.5 nM (for compounds tested in the nanomolar concentration range) using medium containing 0.1% DMSO. The final concentration of DMSO in the culture medium was maintained at 0.1%-0.001% (v/v). After 48 hrs incubation in the presence of test compounds, the spent medium was removed and the wells were washed twice with 100 μL of PBS solution. 100 μL of fresh medium and 10 μL of MTT (5 mg/ml in PBS) was added to the wells and incubated at 37° C. in dark for 4 hrs. The formazan product was dissolved by adding 100 μL of 100% DMSO after removing the medium from each well and was stabilized by adding 12.5 μL of Sorensen's glycine buffer to each well. […]

SMILES: Cc1cccc(-c2cc(=O)c3c(O)cc(O)c(C4=CCN(C)CC4)c3o2)c1 [Compound G2, 5,7-hydroxy-8-(1-methyl-1,2,3,6-tetrahydropyridin-4-yl)-2-(3-methylphenyl)-4H-chromen-4-one]
- IC50 [1]: 3.65 µM
- melting point: 179 to 180 °C

SMILES: COc1ccc(/C=C/C(=O)c2c(OC)cc(OC)c(C3=CCNCC3)c2O)c(OC)c1OC [Compound B16, (E)-1-(2-hydroxy-4,6-dimethoxy-3-(1,2,3,6-tetrahydropyridine-4-yl)phenyl)-3-(2,3,4-trimethoxyphenyl)-2-propylene-1-one]
- IC50 [1]: 5.54 µM
- melting point: 98 to 100 °C

- melting point: 129 to 130 °C
SMILES: COc1ccc(/C=C/C(=O)c2c(OC)cc(OC)c(CN3CCCCC3)c2O)cc1 [Compound C2, (E)-1-(2-hydroxy-4,6-dimethoxy-3-(piperidin-1-ylmethyl)phenyl)-3-(4-methoxyphenyl)-2-propylene-1-one]
- IC50 [1]: 5.46 µM

- melting point: 126 to 127 °C
SMILES: COc1cc(OC)c(C(=O)/C=C/c2ccc(C)cc2)c(O)c1CN1CCOCC1 [Compound D1, (E)-1-(2-hydroxy-4,6-dimethoxy-3-(morpholin-4-ylmethyl)phenyl)-3-(4-methylphenyl)-2-propylene-1-one]
- IC50 [1]: 14.8 µM

SMILES: COc1ccc(/C=C/C(=O)c2c(OC)cc(OC)c(C3=CCNCC3)c2O)cc1 [Compound B10, (E)-1-(2-hydroxy-4,6-dimethoxy-3-(1,2,3,6-tetrahydropyridine-4-yl)phenyl)-3-(4-methoxyphenyl)-2-propylene-1-one]
- IC50 [1]: 11.4 µM
- melting point: 90 to 91 °C

- melting point: 169 to 170 °C
SMILES: COc1cccc(/C=C/C(=O)c2c(OC)cc(OC)c(CN3CCOCC3)c2O)c1 [Compound D6, (E)-3-(3-methoxyphenyl)-1-(2-hydroxy-4,6-dimethoxy-3-(morpholinemethyl)-phenyl)-2-propylene-1-one]
- IC50 [1]: 2.17 µM

SMILES: COc1cccc(-c2cc(=O)c3c(OC)cc(OC)c(C4=CCN(C)CC4)c3o2)c1OC [Compound F6, 5,7-dimethoxy-8-(1-methyl-1,2,3,6-tetrahydropyridin-4-yl)-2-(2,3-dimethoxy-phenyl)-4H-chromen-4-one]
- IC50 [1]: 61.3 µM
- melting point: 195 to 196 °C

SMILES: COc1cc(/C=C/C(=O)c2c(OC)cc(OC)c(C3=CCN(C)CC3)c2O)cc(OC)c1OC [Compound A17, (E)-1-(2-hydroxy-4,6-dimethoxy-3-(1-methyl-1,2,3,6-tetrahydropyridine-4-yl)phenyl)-3-(3,4,5-trimethoxyphenyl)-2-propylene-1-one]
- IC50 [1]: 18.4 µM
- melting point: 156 to 158 °C

SMILES: COc1cc(OC)c(C2=CCN(C)CC2)c(O)c1C(=O)/C=C/c1ccc(C)cc1 [Compound A9, (E)-1-(2-hydroxy-4,6-dimethoxy-3-(1-methyl-1,2,3,6-tetrahydropyridine-4-yl)phenyl)-3-(4-methylphenyl)-2-propylene-1-one]
- IC50 [1]: 3.87 µM
- melting point: 150 to 151 °C

SMILES: COc1ccc(/C=C/C(=O)c2c(OC)cc(OC)c(C3=CCN(C)CC3)c2O)cc1 [Compound A10, (E)-1-(2-hydroxy-4,6-dimethoxy-3-(1-methyl-1,2,3,6-tetrahydropyridine-4-yl)phenyl)-3-(4-methoxyphenyl)-2-propylene-1-one]
- IC50 [1]: 11.8 µM
- melting point: 177 to 178 °C

SMILES: COc1cc(OC)c(C2=CCNCC2)c(O)c1C(=O)/C=C/c1cccc(Cl)c1 [Compound B7, (E)-3-(3-chlorophenyl)-1-(2-hydroxy-4,6-dimethoxy-3-(1,2,3,6-tetrahydropyridine-4-yl)phenyl)-2-propylene-1-one]
- IC50 [1]: 9.97 µM
- melting point: 102 to 103 °C

- melting point: 95 to 96 °C
SMILES: COc1cc(OC)c(C(=O)/C=C/c2ccco2)c(O)c1CN1CCCCC1 [Compound E31, (E)-3-(furan-2-yl)-1-(2-hydroxy-4,6-dimethoxy-3-(piperidine-1-ylmethyl)phenyl)-2-propylene-1-one]
- IC50 [1]: 8.52 µM

SMILES: COc1cc(OC)c(C2=CCN(C)CC2)c(O)c1C(=O)/C=C/c1ccc(C#N)cc1 [Compound A15, (E)-3-(4-cyanophenyl)-1-(2-hydroxy-4,6-dimethoxy-3-(1-methyl-1,2,3,6-tetrahydropyridine-4-yl)phenyl)-2-propylene-1-one]
- IC50 [1]: 13.3 µM
- melting point: 125 to 126 °C

SMILES: COc1cc(OC)c2c(=O)cc(-c3ccc(C)cc3)oc2c1C1=CCN(C)CC1 [Compound F3, 5,7-dimethoxy-8-(1-methyl-1,2,3,6-tetrahydropyridin-4-yl)-2-(4-methylphenyl)-4H-chromen-4-one]
- IC50 [1]: 21.1 µM
- melting point: 113 to 114 °C

SMILES: COc1cc(OC)c(C2=CCNCC2)c(O)c1C(=O)/C=C/c1ccc(N(C)C)cc1 [Compound B14, (E)-3-(4-dimethylaminophenyl)-1-(2-hydroxy-4,6-dimethoxy-3-(1,2,3,6-tetrahydropyridine-4-yl)phenyl)-2-propylene-1-one]
- IC50 [1]: 32 µM
- melting point: 127 to 128 °C

SMILES: COc1cc(OC)c(C2=CCN(C)CC2)c(O)c1C(=O)/C=C/c1cccc(C)c1 [Compound A5, (E)-1-(2-hydroxy-4,6-dimethoxy-3-(1-methyl-1,2,3,6-tetrahydropyridine-4-yl)phenyl)-3-meta-methylphenyl-2-propylene-1-one]
- IC50 [1]: 8.89 µM
- melting point: 165 to 166 °C

SMILES: COc1cc(OC)c(C2=CCNCC2)c(O)c1C(=O)/C=C/c1ccc(O)cc1 [Compound B11, (E)-1-(2-hydroxy-4,6-dimethoxy-3-(1,2,3,6-tetrahydropyridine-4-yl)phenyl)-3-(4-hydroxyphenyl)-2-propylene-1-one]
- IC50 [1]: 4.03 µM
- melting point: 109 to 110 °C

- melting point: 135 to 136 °C
SMILES: COc1cc(OC)c(C(=O)/C=C/c2cccc(Cl)c2)c(O)c1CN1CCOCC1 [Compound D5, (E)-3-(3-chlorophenyl)-1-(2-hydroxy-4,6-dimethoxy-3-(morpholinemethyl)phenyl)-2-propylene-1-one]
- IC50 [1]: 2.8 µM

SMILES: COc1cc(/C=C/C(=O)c2c(OC)cc(OC)c(C3=CCNCC3)c2O)cc(OC)c1OC [Compound B17, (E)-1-(2-hydroxy-4,6-dimethoxy-3-(1,2,3,6-tetrahydropyridine-4-yl)phenyl)-3-(3,4,5-trimethoxyphenyl)-2-propylene-1-one]
- IC50 [1]: 4.2 µM
- melting point: 124 to 125 °C

SMILES: COc1cc(OC)c2c(=O)cc(-c3ccc(N(C)C)cc3)oc2c1C1=CCN(C)CC1 [Compound F5, 5,7-dimethoxy-8-(1-methyl-1,2,3,6-tetrahydropyridin-4-yl)-2-(4-(dimethylamino)-phenyl)-4H-chromen-4-one]
- IC50 [1]: 7.71 µM
- melting point: 148 to 150 °C

SMILES: COc1cc(OC)c(C2=CCN(C)CC2)c(O)c1C(=O)/C=C/c1ccc(Br)cc1 [Compound A13, (E)-3-(4-bromophenyl)-1-(2-hydroxy-4,6-dimethoxy-3-(1-methyl-1,2,3,6-tetrahydropyridine-4-yl)phenyl)-2-propylene-1-one]
- IC50 [1]: 8.76 µM
- melting point: 164 to 165 °C

SMILES: COc1cc(OC)c(C2=CCNCC2)c(O)c1C(=O)/C=C/c1ccco1 [Compound E2, (E)-3-(furan-2-yl)-1-(2-hydroxy-4,6-dimethoxy-3-(1,2,3,6-tetrahydropyridin-4-yl)phenyl)-2-propylene-1-one]
- IC50 [1]: 11.1 µM
- melting point: 119 to 120 °C
